# According to ChEMBL document CHEMBL3885881, “DrugMatrix”:
# Species: Rattus norvegicus
# Test: DrugMatrix - Regimen: Daily Repeat
# Format: toxicity, organism-based, Sprague-Dawley
# Parameters: regimen Daily Repeat, gender Male, age 6-8 weeks
# Conditions: in vivo, po, route oral GAVAGE, vehicle 100 % WATER; for ABSOLUTE BASOPHIL / ABSOLUTE EOSINOPHIL / ABSOLUTE LYMPHOCYTE / ABSOLUTE MONOCYTE / ABSOLUTE SEGMENTED NEUTROPHIL / BASOPHIL / EOSINOPHIL / ERYTHROCYTE COUNT / HEMATOCRIT / HEMOGLOBIN / LEUKOCYTE COUNT / LYMPHOCYTE / MEAN CORPUSCULAR HEMOGLOBIN / MEAN CORPUSCULAR HEMOGLOBIN CONCENTRATION / MEAN CORPUSCULAR VOLUME / MONOCYTE / NEUTROPHIL / NUCLEATED RED BLOOD CELLS / PLATELET COUNT: tissue Blood; for ALANINE AMINOTRANSFERASE / ALBUMIN / ALKALINE PHOSPHATASE / ASPARTATE AMINOTRANSFERASE / BLOOD UREA NITROGEN / CARBON DIOXIDE / CHLORIDE / CHOLESTEROL / CREATINE PHOSPHOKINASE / CREATININE / GLUCOSE / LACTATE DEHYDROGENASE / LIPASE / PHOSPHORUS / POTASSIUM / SODIUM / TOTAL BILIRUBIN / TOTAL PROTEIN / URIC ACID: tissue Plasma
# [1] = 500 mg/kg, 120 h, dose level Low, time 5 day
# [2] = 2000 mg/kg, 72 h, dose level High, time 3 day
# [3] = 2000 mg/kg, 120 h, dose level High, time 5 day
structure (smiles),measurement,setting,value
NCCCCCC(=O)O [AMINOCAPROIC ACID],ABSOLUTE BASOPHIL,[1],0 CELLS/uL
same,ABSOLUTE EOSINOPHIL,[1],0 CELLS/uL
same,ABSOLUTE LYMPHOCYTE,[1],13712 CELLS/uL
same,ABSOLUTE MONOCYTE,[1],316 CELLS/uL
same,ABSOLUTE SEGMENTED NEUTROPHIL,[1],872 CELLS/uL
same,BASOPHIL,[1],0%
same,EOSINOPHIL,[1],0%
same,ERYTHROCYTE COUNT,[1],5.42 x10E6/uL
same,HEMATOCRIT,[1],34.37%
same,HEMOGLOBIN,[1],13.87 G/DL
same,LEUKOCYTE COUNT,[1],14.9 x10E3/uL
same,LYMPHOCYTE,[1],92.33%
same,MEAN CORPUSCULAR HEMOGLOBIN,[1],25.67 pg
same,MEAN CORPUSCULAR HEMOGLOBIN CONCENTRATION,[1],40.37 G/DL
same,MEAN CORPUSCULAR VOLUME,[1],63.53 fL
same,MONOCYTE,[1],2%
same,NEUTROPHIL,[1],5.67%
same,NUCLEATED RED BLOOD CELLS,[1],0 /100WBC
same,PLATELET COUNT,[1],1257.67 x10E3/uL
same,ALANINE AMINOTRANSFERASE,[1],51.33 u/L
same,ALBUMIN,[1],4.4 G/DL
same,ALKALINE PHOSPHATASE,[1],417.33 u/L
same,ASPARTATE AMINOTRANSFERASE,[1],75.67 u/L
same,BLOOD UREA NITROGEN,[1],15.33 mg/dL
same,CARBON DIOXIDE,[1],26.67 mmol/L
same,CHLORIDE,[1],101.67 MEQ/L
same,CHOLESTEROL,[1],72.67 mg/dL
same,CREATINE PHOSPHOKINASE,[1],253.67 u/L
same,CREATININE,[1],0.15 mg/dL
same,GLUCOSE,[1],153.33 mg/dL
same,LACTATE DEHYDROGENASE,[1],102.33 u/L
same,LIPASE,[1],9 u/L
same,PHOSPHORUS,[1],11.07 mg/dL
same,POTASSIUM,[1],6.75 MEQ/L
same,SODIUM,[1],143.73 MEQ/L
same,TOTAL BILIRUBIN,[1],0.2 mg/dL
same,TOTAL PROTEIN,[1],6.1 G/DL
same,URIC ACID,[1],1.57 mg/dL
same,ABSOLUTE BASOPHIL,[2],0 CELLS/uL
same,ABSOLUTE EOSINOPHIL,[2],99.33 CELLS/uL
same,ABSOLUTE LYMPHOCYTE,[2],12832.33 CELLS/uL
same,ABSOLUTE MONOCYTE,[2],0 CELLS/uL
same,ABSOLUTE SEGMENTED NEUTROPHIL,[2],1535 CELLS/uL
same,BASOPHIL,[2],0%
same,EOSINOPHIL,[2],0.67%
same,ERYTHROCYTE COUNT,[2],5.61 x10E6/uL
same,HEMATOCRIT,[2],36.13%
same,HEMOGLOBIN,[2],14.13 G/DL
same,LEUKOCYTE COUNT,[2],14.47 x10E3/uL
same,LYMPHOCYTE,[2],88.67%
same,MEAN CORPUSCULAR HEMOGLOBIN,[2],25.17 pg
same,MEAN CORPUSCULAR HEMOGLOBIN CONCENTRATION,[2],39.1 G/DL
same,MEAN CORPUSCULAR VOLUME,[2],64.4 fL
same,MONOCYTE,[2],0%
same,NEUTROPHIL,[2],10.67%
same,NUCLEATED RED BLOOD CELLS,[2],0.33 /100WBC
same,PLATELET COUNT,[2],1333.33 x10E3/uL
same,ALANINE AMINOTRANSFERASE,[2],41.67 u/L
same,ALBUMIN,[2],4.27 G/DL
same,ALKALINE PHOSPHATASE,[2],386.67 u/L
same,ASPARTATE AMINOTRANSFERASE,[2],89 u/L
same,BLOOD UREA NITROGEN,[2],18 mg/dL
same,CARBON DIOXIDE,[2],22.67 mmol/L
same,CHLORIDE,[2],103 MEQ/L
same,CHOLESTEROL,[2],61.33 mg/dL
same,CREATINE PHOSPHOKINASE,[2],502 u/L
same,CREATININE,[2],0.2 mg/dL
same,GLUCOSE,[2],180 mg/dL
same,LACTATE DEHYDROGENASE,[2],295 u/L
same,LIPASE,[2],11 u/L
same,PHOSPHORUS,[2],11.37 mg/dL
same,POTASSIUM,[2],5.97 MEQ/L
same,SODIUM,[2],144.2 MEQ/L
same,TOTAL BILIRUBIN,[2],0.27 mg/dL
same,TOTAL PROTEIN,[2],5.77 G/DL
same,URIC ACID,[2],1.03 mg/dL
same,ABSOLUTE BASOPHIL,[3],0 CELLS/uL
same,ABSOLUTE EOSINOPHIL,[3],109 CELLS/uL
same,ABSOLUTE LYMPHOCYTE,[3],13720 CELLS/uL
same,ABSOLUTE MONOCYTE,[3],222 CELLS/uL
same,ABSOLUTE SEGMENTED NEUTROPHIL,[3],1882.33 CELLS/uL
same,BASOPHIL,[3],0%
same,EOSINOPHIL,[3],0.67%
same,ERYTHROCYTE COUNT,[3],5.57 x10E6/uL
same,HEMATOCRIT,[3],34.6%
same,HEMOGLOBIN,[3],13.8 G/DL
same,LEUKOCYTE COUNT,[3],15.93 x10E3/uL
same,LYMPHOCYTE,[3],86.33%
same,MEAN CORPUSCULAR HEMOGLOBIN,[3],24.83 pg
same,MEAN CORPUSCULAR HEMOGLOBIN CONCENTRATION,[3],39.87 G/DL
same,MEAN CORPUSCULAR VOLUME,[3],62.2 fL
same,MONOCYTE,[3],1.33%
same,NEUTROPHIL,[3],11.67%
same,NUCLEATED RED BLOOD CELLS,[3],0 /100WBC
same,PLATELET COUNT,[3],1463.33 x10E3/uL
same,ALANINE AMINOTRANSFERASE,[3],41.67 u/L
same,ALBUMIN,[3],4.27 G/DL
same,ALKALINE PHOSPHATASE,[3],291 u/L
same,ASPARTATE AMINOTRANSFERASE,[3],77 u/L
same,BLOOD UREA NITROGEN,[3],17.67 mg/dL
same,CARBON DIOXIDE,[3],25.33 mmol/L
same,CHLORIDE,[3],101 MEQ/L
same,CHOLESTEROL,[3],60.67 mg/dL
same,CREATINE PHOSPHOKINASE,[3],281 u/L
same,CREATININE,[3],0.15 mg/dL
same,GLUCOSE,[3],157.33 mg/dL
same,LACTATE DEHYDROGENASE,[3],298.67 u/L
same,LIPASE,[3],9.33 u/L
same,PHOSPHORUS,[3],10.73 mg/dL
same,POTASSIUM,[3],6.02 MEQ/L
same,SODIUM,[3],141.63 MEQ/L
same,TOTAL BILIRUBIN,[3],0.17 mg/dL
same,TOTAL PROTEIN,[3],6.07 G/DL
same,URIC ACID,[3],0.8 mg/dL
